Columns and labels:
Assay type in all cases: biochemical
CYP2C19 = target: T1, CYP2C19 (Homo sapiens, UniProt P33261); experiment: Cocktail assay for CYPs, mephenytoin 4′-hydroxylation (CYP2C19), human liver microsomes; conditions: 30 μM mephenytoin, 0.1 mg/mL human liver microsomes, 10 min at 37° C.; read-out: CYP IC50 (nM) 2C19
T1 construct: 0.1 mg/mL protein human liver microsomes (BD Gentest); tissue BD Gentest; host or cells: human liver microsomes
Procedure, shortened: (§1)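 Pooled human liver microsomes (0.1 mg/mL) with probe cocktail incl. 5 μM diclofenac (CYP2C9) and 30 μM mephenytoin (CYP2C19), 1 mM NADPH, pH 7.4 phosphate buffer, 10 min at 37° C. Metabolites quantified by LC/MS/MS against internal standard; % inhibition versus no-inhibitor control, IC50 by non-linear regression.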

CYP3A4 [1] = target: T2, CYP3A4 (Homo sapiens, UniProt P08684); experiment: IC50 vs CYP3A by inhibition of lopinavir metabolism in human liver microsomes; set-up: 0.01 mg/mL protein human liver microsomes (BD Gentest); tissue BD Gentest; host or cells: human liver microsomes; conditions: 1.5 μM lopinavir, 0.01 mg/mL human liver microsomes, 8 min at 37° C.; read-out: CYP IC50 (nM) 3A4 (LPV)
Procedure, shortened: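 Human liver microsomes (0.01 mg/mL) with 1.5 μM lopinavir, 1 mM NADPH, 3.3 mM MgCl2 in 100 mM potassium phosphate pH 7.4, 8 min at 37 °C, six compound concentrations. Summed M2/M3/M4 hydroxy metabolites quantified by LC/MS/MS against tolbutamide; % inhibition normalised between no-inhibitor and 5 μM ketoconazole controls, IC50 by non-linear regression.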
Target sequence in this assay (P08684 2-503): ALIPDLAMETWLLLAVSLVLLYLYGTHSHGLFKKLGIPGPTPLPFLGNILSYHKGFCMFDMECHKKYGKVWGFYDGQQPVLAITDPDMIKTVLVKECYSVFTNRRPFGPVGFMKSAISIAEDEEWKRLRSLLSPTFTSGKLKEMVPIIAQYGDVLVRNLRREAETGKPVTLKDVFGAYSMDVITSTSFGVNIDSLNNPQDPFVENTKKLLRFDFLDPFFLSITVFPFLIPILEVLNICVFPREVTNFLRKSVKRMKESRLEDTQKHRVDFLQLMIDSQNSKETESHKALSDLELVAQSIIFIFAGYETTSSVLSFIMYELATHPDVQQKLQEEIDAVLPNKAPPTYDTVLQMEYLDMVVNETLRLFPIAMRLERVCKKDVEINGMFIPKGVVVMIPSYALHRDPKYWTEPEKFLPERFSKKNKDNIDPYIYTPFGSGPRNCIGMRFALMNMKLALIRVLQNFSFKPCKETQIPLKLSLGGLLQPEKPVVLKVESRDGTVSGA

CYP1A2 = target: T3, CYP1A2 (Homo sapiens, UniProt P05177); experiment: Cocktail assay for CYPs, phenacetin O-deethylation (CYP1A2), human liver microsomes; conditions: 10 μM phenacetin, 0.1 mg/mL human liver microsomes, 10 min at 37° C.; read-out: CYP IC50 (nM) 1A2
T3 construct: 0.1 mg/mL protein human liver microsomes (BD Gentest); tissue BD Gentest; host or cells: human liver microsomes
T3 sequence (P05177 1-516): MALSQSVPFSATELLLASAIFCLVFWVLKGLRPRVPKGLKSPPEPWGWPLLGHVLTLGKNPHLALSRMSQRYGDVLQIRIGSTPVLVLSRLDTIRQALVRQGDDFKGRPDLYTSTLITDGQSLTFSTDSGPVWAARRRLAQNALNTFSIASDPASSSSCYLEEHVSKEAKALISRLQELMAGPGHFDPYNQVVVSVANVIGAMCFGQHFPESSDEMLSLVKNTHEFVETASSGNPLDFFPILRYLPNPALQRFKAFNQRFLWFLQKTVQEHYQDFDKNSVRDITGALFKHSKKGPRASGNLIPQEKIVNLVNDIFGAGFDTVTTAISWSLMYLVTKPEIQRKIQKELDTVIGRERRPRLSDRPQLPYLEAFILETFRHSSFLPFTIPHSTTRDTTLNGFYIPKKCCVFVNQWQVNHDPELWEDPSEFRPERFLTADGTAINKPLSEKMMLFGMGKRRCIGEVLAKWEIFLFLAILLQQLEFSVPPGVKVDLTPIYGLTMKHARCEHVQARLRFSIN
Procedure, shortened: (§2)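 Pooled human liver microsomes (0.1 mg/mL) with a probe cocktail of 10 μM phenacetin, 5 μM dextromethorphan and 2 μM midazolam plus NADPH, pH 7.4, 10 min at 37° C. Each metabolite was quantified by LC/MS/MS against a tolbutamide internal standard. IC50 came from % inhibition at 6 concentrations (e.g. 0.0032–10 μM) by non-linear regression.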

CYP2C9 = target: T4, CYP2C9 (Homo sapiens, UniProt P11712); experiment: Cocktail assay for CYPs, diclofenac 4′-hydroxylation (CYP2C9), human liver microsomes; conditions: 5 μM diclofenac, 0.1 mg/mL human liver microsomes, 10 min at 37° C.; read-out: CYP IC50 (nM) 2C9
T4 construct: 0.1 mg/mL protein human liver microsomes (BD Gentest); tissue BD Gentest; host or cells: human liver microsomes
Procedure, shortened: as §1

CYP2D6 = target: T5, CYP2D6 (Homo sapiens, UniProt P10635); experiment: Cocktail assay for CYPs, dextromethorphan O-demethylation (CYP2D6), human liver microsomes; conditions: 5 μM dextromethorphan, 0.1 mg/mL human liver microsomes, 10 min at 37° C.; read-out: CYP IC50 (nM) 2D6
T5 construct: 0.1 mg/mL protein human liver microsomes (BD Gentest); tissue BD Gentest; host or cells: human liver microsomes
Procedure, shortened: as §2

CYP3A4 [2] = target: T2, CYP3A4; experiment: Cocktail assay for CYPs, midazolam 1′-hydroxylation (CYP3A4), human liver microsomes; set-up: 0.1 mg/mL protein human liver microsomes (BD Gentest); tissue BD Gentest; host or cells: human liver microsomes; conditions: 2 μM midazolam, 0.1 mg/mL human liver microsomes, 10 min at 37° C.; read-out: CYP IC50 (nM) 3A4 (MDZ)
Procedure, shortened: as §2
Target sequence in this assay (P08684 whole entry): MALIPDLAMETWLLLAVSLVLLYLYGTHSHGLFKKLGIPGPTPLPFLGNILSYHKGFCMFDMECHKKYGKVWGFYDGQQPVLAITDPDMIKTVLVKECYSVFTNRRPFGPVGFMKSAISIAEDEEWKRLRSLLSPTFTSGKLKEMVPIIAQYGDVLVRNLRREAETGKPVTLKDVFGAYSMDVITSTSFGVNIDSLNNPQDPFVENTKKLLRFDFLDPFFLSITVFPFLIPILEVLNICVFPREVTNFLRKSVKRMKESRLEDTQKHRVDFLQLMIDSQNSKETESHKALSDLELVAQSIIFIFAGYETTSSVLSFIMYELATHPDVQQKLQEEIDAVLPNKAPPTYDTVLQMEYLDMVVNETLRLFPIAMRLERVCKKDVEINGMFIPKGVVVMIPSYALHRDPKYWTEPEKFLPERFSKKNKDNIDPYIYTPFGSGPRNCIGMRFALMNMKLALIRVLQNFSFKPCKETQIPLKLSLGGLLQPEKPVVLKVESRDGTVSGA

T4 sequence (P11712 whole entry): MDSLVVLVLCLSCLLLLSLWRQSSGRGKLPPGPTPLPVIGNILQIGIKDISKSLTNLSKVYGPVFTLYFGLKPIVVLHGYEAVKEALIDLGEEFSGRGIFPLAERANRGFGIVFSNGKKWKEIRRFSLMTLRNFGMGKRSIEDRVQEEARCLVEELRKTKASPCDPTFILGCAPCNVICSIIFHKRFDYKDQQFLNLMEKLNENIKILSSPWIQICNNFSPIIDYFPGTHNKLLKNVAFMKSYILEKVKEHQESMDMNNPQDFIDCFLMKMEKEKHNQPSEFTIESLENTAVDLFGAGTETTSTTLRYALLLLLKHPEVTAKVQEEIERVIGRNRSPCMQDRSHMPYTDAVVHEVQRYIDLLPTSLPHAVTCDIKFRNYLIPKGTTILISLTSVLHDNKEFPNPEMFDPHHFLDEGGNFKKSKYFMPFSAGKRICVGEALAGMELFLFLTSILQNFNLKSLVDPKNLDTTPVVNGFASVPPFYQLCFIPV
T1 sequence (P33261 whole entry): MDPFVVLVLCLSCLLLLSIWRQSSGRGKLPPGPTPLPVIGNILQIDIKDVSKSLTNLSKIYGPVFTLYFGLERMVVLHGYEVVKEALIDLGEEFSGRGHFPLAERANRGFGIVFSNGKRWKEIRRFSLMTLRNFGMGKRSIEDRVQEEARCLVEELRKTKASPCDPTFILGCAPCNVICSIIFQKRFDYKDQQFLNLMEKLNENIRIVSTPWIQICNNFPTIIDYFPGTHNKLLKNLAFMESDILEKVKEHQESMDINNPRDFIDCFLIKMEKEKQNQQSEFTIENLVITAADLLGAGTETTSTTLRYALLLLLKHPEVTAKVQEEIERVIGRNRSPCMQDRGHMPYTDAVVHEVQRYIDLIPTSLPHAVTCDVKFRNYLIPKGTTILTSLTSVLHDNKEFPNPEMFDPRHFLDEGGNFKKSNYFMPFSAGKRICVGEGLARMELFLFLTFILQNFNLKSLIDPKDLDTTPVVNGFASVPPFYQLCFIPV
T5 sequence (P10635 whole entry): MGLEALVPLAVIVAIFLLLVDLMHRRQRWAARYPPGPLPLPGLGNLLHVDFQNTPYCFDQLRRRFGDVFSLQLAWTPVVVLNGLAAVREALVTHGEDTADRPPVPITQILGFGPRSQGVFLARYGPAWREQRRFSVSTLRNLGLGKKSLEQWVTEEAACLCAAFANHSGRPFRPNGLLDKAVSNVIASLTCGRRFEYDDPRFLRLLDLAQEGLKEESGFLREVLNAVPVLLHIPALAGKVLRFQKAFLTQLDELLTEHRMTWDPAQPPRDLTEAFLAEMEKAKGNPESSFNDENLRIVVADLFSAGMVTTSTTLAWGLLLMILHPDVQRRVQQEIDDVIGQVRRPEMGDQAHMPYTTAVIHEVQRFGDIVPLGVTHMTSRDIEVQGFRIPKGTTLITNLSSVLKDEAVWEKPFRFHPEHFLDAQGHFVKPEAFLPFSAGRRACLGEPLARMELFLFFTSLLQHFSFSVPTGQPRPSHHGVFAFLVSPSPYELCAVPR

| SMILES | IC50 (CYP2C19) [nM] | IC50 (CYP3A4 [1]) [nM] | IC50 (CYP1A2) [nM] | IC50 (CYP2C9) [nM] | IC50 (CYP2D6) [nM] | IC50 (CYP3A4 [2]) [nM] |
| --- | --- | --- | --- | --- | --- | --- |
| CC(=O)Nc1ncc(S(=O)(=O)NC(C)(C)c2ccccc2-c2cncn2CCc2ccc(F)cc2)s1 [Compound 7, N-(5-(N-(2-(2-(1-(4-fluorophenethyl)-1H-imidazol-5-yl)phenyl)propan-2-yl)sulfamoyl)thia-zol-2-yl)acetamide] | 3180 | 10.6 | 6070 | 5990 | 2880 | 22.9 |
| CC(C)NC(=O)N1CCCC1c1cccc(-c2cncn2CCc2ccc(F)cc2)c1 (stereo not drawn) [Compound 50, 2-(3-(1-(4-fluorophenethyl)-1H-imidazol-5-yl)phenyl)-N-isopropyl-pyrrolidine-1-carboxamide] | 2070 | 14.2 | 5750 | 4180 | ≥ 10000 | 9.4 |
| CC(=O)Nc1ncc(S(=O)(=O)N2Cc3cccc(-c4cncn4CCc4ccc(F)cc4)c3C2)s1 [Compound 15, N-(5-((4-(1-(4-fluorophenethyl)-1H-imidazol-5-yl)isoindolin-2-yl)sulfonyl)thiazol-2-yl)acetamide] | 155 | 8 | > 10000 | 1230 | 1400 | 6.4 |
| O=S(=O)(c1ccc(NCC(O)C2CC2)nc1)N1CCCC1c1ccccc1-c1cncn1CCc1ccc(F)cc1 (single isomer, unassigned) [Compound 34a, 1-cyclopropyl-2-((5-(((R or S)-2-(2-(1-(4-fluorophenethyl)-1H-imidazol-5-yl)phenyl)pyrrolidin-1-yl)sulfonyl)pyridin-2-yl)amino)ethanol] | 2680 | 4.5 | 7020 | 2620 | 1670 | 10.4 |
| CC(=O)Nc1ncc(S(=O)(=O)NCc2ccc(-c3cncn3CCc3ccc(F)cc3)cn2)s1 [Compound 11, N-(5-(N-((5-(1-(4-fluorophenethyl)-1H-imidazol-5-yl)pyridin-2-yl)methyl)sulfamoyl)thiazol-2-yl)acetamide] | 912 | > 100 | > 10000 | 7470 | 8390 | 197 |
| CN1CCN(c2ccc(S(=O)(=O)N3CCc4c(cccc4-c4cncn4CCc4ccc(F)cc4)C3)cn2)CC1 [Compound 59, 5-(1-(4-fluorophenethyl)-1H-imidazol-5-yl)-2-((6-(4-methylpiperazin-1-yl)pyridin-3-yl)sulfonyl)-1,2,3,4-tetrahydroisoquinoline] | 5610 | 1.5 | > 10000 | 4530 | 1980 | 4 |
| O=S(=O)(c1cnc(Cl)c(Br)c1)N1CCCC1c1cccc(-c2cncn2CCc2ccc(F)cc2)c1 (stereo not drawn) [Compound 54, 3-Bromo-2-chloro-5-((2-(3-(1-(4-fluorophenethyl)-1H-imidazol-5-yl)phenyl)pyrrolidin-1-yl)sulfonyl) pyridine] | 109 | 3.2 | 1240 | 422 | 1150 | 13.9 |
| CC(=O)Nc1ncc(S(=O)(=O)N2CCCC2c2ccccc2-c2cncn2C2CC2)s1 (stereo not drawn) [Compound 31, N-(5-((2-(2-(1-cyclopropyl-1H-imidazol-5-yl)phenyl)pyrrolidin-1-yl)sulfonyl)thiazol-2-yl) acetamide] | > 10000 | 25.4 | > 10000 | > 10000 | > 10000 | 25.4 |
| COCCN(C)c1ccc(S(=O)(=O)N2CCc3c(cccc3-c3cncn3CCc3ccc(F)cc3)C2)cn1 [Compound 62, 5-((5-(1-(4-fluorophenethyl)-1H-imidazol-5-yl)-3,4-dihydroisoquinolin-2(1H)-yl)sulfonyl)-N-(2-methoxy-ethyl)-N-methylpyridin-2-amine] | 238 | 1.3 | > 10000 | 575 | 2720 | 5.2 |
| C[C@H](c1ccc(F)cc1)n1cncc1-c1cccc2c1CCN(S(=O)(=O)c1cnc(N3CCN4C[C@H](O)C[C@H]4C3)s1)C2 [Compound 63, (7R,8aS)-2-(5-((5-(1-((R)-1-(4-fluorophenyl)ethyl)-1H-imidazol-5-yl)-3,4-dihydroisoquinolin-2(1H)-yl)sulfonyl)thiazol-2-yl)octahydropyrrolo[1,2-a]pyrazin-7-ol] | 2610 | 5 | 2500 | 4950 | 3680 | 7.5 |
| CC(C)OC(=O)N1CCCC1c1ccccc1-c1cncn1CCc1ccc(F)cc1 (single isomer, unassigned) [Compound 39b, (R or S)-isopropyl 2-(2-(1-(4-fluorophenethyl)-1H-imidazol-5-yl)phenyl) pyrrolidine-1-carboxylate] | 4740 | 28.2 | > 10000 | 6380 | 8580 | 34.5 |

Further lines, results first:

| IC50 (CYP2C19) [nM] | IC50 (CYP3A4 [1]) [nM] | IC50 (CYP1A2) [nM] | IC50 (CYP2C9) [nM] | IC50 (CYP2D6) [nM] | IC50 (CYP3A4 [2]) [nM] | SMILES |
| --- | --- | --- | --- | --- | --- | --- |
| 78.6 | 2 | 1080 | 165 | 1370 | 8.65 | COc1ccc(OC)c(S(=O)(=O)N2CCCC2c2cccc(-c3cncn3CCc3ccc(F)cc3)c2)c1 (single isomer, unassigned) [Compound 53a, (R or S)-5-(3-(1-((2,5-dimethoxyphenyl)sulfonyl)pyrrolidin-2-yl)phenyl)-1-(4-fluorophenethyl)-1H-imidazole] |
| 7130 | 6.4 | > 10000 | 5900 | > 10000 | 6.7 | O=C(C1CC1)N1CCCC1c1ccccc1-c1cncn1CCc1ccc(F)cc1 (single isomer, unassigned) [Compound 44b, (R or S)-cyclopropyl(2-(2-(1-(4-fluorophenethyl)-1H-imidazol-5-yl)phenyl)pyrrolidin-1-yl)methanone] |
| > 10000 | 6.2 | > 10000 | > 10000 | > 10000 | 6.1 | CC(C)NC(=O)N1CCCC1c1ccccc1-c1cncn1CCc1ccc(F)cc1 (single isomer, unassigned) [Compound 46b, (R or S)-2-(2-(1-(4-fluorophenethyl)-1H-imidazol-5-yl)phenyl)-N-isopropyl-pyrrolidine-1-carboxamide] |
| > 10000 | 45.3 | > 10000 | > 10000 | > 10000 | 58.5 | CC(C)NC(=O)N1CCCC1c1ccccc1-c1cncn1CCc1ccc(F)cc1 (single isomer, unassigned) [Compound 46a, (R or S)-2-(2-(1-(4-fluorophenethyl)-1H-imidazol-5-yl)phenyl)-N-isopropyl-pyrrolidine-1-carboxamide] |
| 3830 | 29.6 | > 10000 | 9740 | 4700 | 30.1 | O=C(C1CCOCC1)N1CCCC1c1cccc(-c2cncn2CCc2ccc(F)cc2)c1 (single isomer, unassigned) [Compound 49a, (R or S)-(2-(3-(1-(4-fluorophenethyl)-1H-imidazol-5-yl)phenyl)pyrrolidin-1-yl)(tetrahydro-2H-pyran-4-yl)methanone] |
